Test results published in PubChem BioAssay AID2060892 (Molecular Pharmacology Branch, DTP, NCI, 2025).

Tested on: HOP-62 complex spheroids with HUVEC/MSC, viability
Experiment: Anticancer human tumor HOP-62 cell line growth inhibition [RAS];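 also: spheroids exposed to agents for seven days before readout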
Conditions: for IC50: curve of first compound; for viability, T/C: stronger effect = lower value; active = viability on the fitted dose curve at most 10% of control; inactive = the rest
Source text: RAS pathway inhibitors in Combinations in Complex Spheroids
A high-throughput screen of multi-cell type tumor spheroids was designed to identify active combinations of RAS pathway inhibitors and targeted small molecules. Complex spheroids include a stromal component modeled by human endothelial cells (HUVEC) and fibroblasts modeled by human mesenchymal stem cells (MSCs). The concentration ranges selected for each drug and investigational agent were based upon clinically achievable concentrations if the clinical Cmax of the agent was known.
Compounds. The drugs and investigational agents: abemaciclib (NSC768073), cobimetinib (NSC768068), divarasib (GDC6063, NSC841802), docetaxel (NSC628503), GDC-1971 (RLY-1971, NSC841576), gemcitabine (NSC613327), inavolisib (NSC800729), ipatasertib (NSC767898), KB-0742 (NSC834161), MRTX-1133 (NSC836407), osimertinib (NSC779217), RMC-4630 (NSC839698), RMC-6236 (NSC851965), RMC-6291 (NSC852671), Ro-3306 (NSC812927), sapanisertib (NSC764658), SN-38 (NSC673596), staurosporine (NSC755774), SY5609 (NSC837396), and tovorafenib (DAY101, NSC766906), were obtained from the National Cancer Institute (NCI) Developmental Therapeutics Program Chemical Repository. The FDA-approved anticancer drug set is available from the NCI Developmental Therapeutics Program. […] The stock solutions were prepared in dimethyl sulfoxide (DMSO, Sigma-Aldrich, St. Louis, MO, cat. D2650) at 800-fold the tested concentration and stored at -70 degrees C prior to their use. All drugs and investigational agents were tested over a range starting from a high concentration at or near the clinical Cmax and decreasing in half-log increments. If the clinical Cmax for an agent had not been determined, the highest concentration tested was 10 microM.
Cell Culture. All cells were maintained in an incubator at 37 degrees C and 5% CO2 with 95% humidity. The PDC lines were cultured according to standard operating procedures established by the NCI PDMR. All PDCs were thawed and cultured in Matrigel-coated flasks prepared with a working solution of 1X Ham's F-12 nutrient mix, without supplementation (Invitrogen, Waltham, MA, cat. 11765054), 100 U/mL penicillin-streptomycin (Invitrogen, cat. 15140122), and 2.5% Matrigel (Corning Inc., Corning, NY, cat. 354248) for the first three passages. The 362531-283-R-J2-PDC and 782815-120-R-J1-PDC lines were cultured in 6C/Colon 1B media, which includes advanced DMEM/F-12 (Thermo Fisher Scientific, cat. 12634028), 10 mM HEPES (Thermo Fisher Scientific, cat. 15630080), 1X GlutaMAX supplement (Thermo Fisher Scientific, cat. 35050061), 0.1 mg/mL primocin (InvivoGen, San Diego, CA, cat. ant-pm-2), 10% defined fetal bovine serum, heat inactivated (HyClone Laboratories Inc., Logan, UT, cat. SH30070.03HI), 50% L-WRN conditioned media (ATCC, cat. CRL-3276), 1.25 mM N-Acetyl-L-cysteine (Sigma-Aldrich, cat. A9165), 10 mM nicotinamide (Sigma-Aldrich, cat. N0636), 1X B-27 supplement (Thermo Fisher Scientific, cat. 17504044), 1X N-2 supplement (Thermo Fisher Scientific, cat. 17502048), 50 ng/mL human EGF (Thermo Fisher Scientific, cat. PHG0311), and 10 microM Y-27632 dihydrochloride (Tocris Bioscience, cat. 1254). The K12877-001-R-J1-PDC line was cultured in 6I media, which includes all 6C/Colon 1B media plus 10 ng/mL human FGF-10 (PeproTech, cat. 100-26), 1 ng/mL human FGF-2 (PeproTech, cat. 100-18B), 1 µM prostaglandin E2 (Tocris Bioscience, cat. 2296), […] hydrocortisone (Sigma-Aldrich, cat. H4001), and […] bovine insulin (Sigma-Aldrich, cat. I6634). The K86415-001-R-J1-PDC line was cultured in 6D media, which includes all 6C/Colon 1B media components minus the L-WRN conditioned media. The 485176-168-R4-J1-PDC was cultured in PANC media, which includes all 6C/Colon 1B media plus 100 ng/mL human FGF-10 (PeproTech, cat. 100-26), 500 nM SB-431542 (Selleckchem, cat. S1067), and 10 nM gastrin (Tocris Bioscience, cat. 3006). […]

[1] = second compound 0.0316 µM, first compound 0.0316 µM
[2] = second compound 0.0316 µM, first compound 0.1 µM
[3] = second compound 0.1 µM, first compound 0.0316 µM
[4] = second compound 0.1 µM, first compound 0.1 µM
[5] = second compound 0.316 µM, first compound 0.0316 µM
[6] = second compound 0.316 µM, first compound 0.1 µM
[7] = second compound 1 µM, first compound 0.0316 µM
[8] = second compound 1 µM, first compound 0.1 µM

CC(C)n1nc(-c2ccc3oc(N)nc3c2)c2c(N)ncnc21 + C=CC(=O)N1CCN(c2nc(OCC3CCCN3C)nc3c(F)c(-c4nc(N)cc(C)c4C(F)(F)F)c(Cl)cc23)C(C)C1
1.54 nM: IC50 (second compound 1 µM)
3.62 nM: IC50 (second compound 0.01 µM)
1.29 nM: IC50 (second compound 0.1 µM)
inactive: viability, T/C (second compound 0.00316 µM, first compound 0.000316 µM) 65.2% | viability, T/C (second compound 0.00316 µM, first compound 0.001 µM) 62.2% | viability, T/C (second compound 0.00316 µM, first compound 0.00316 µM) 51.7% | viability, T/C (second compound 0.00316 µM, first compound 0.01 µM) 39.5% | viability, T/C (second compound 0.00316 µM, first compound 0.0316 µM) 26.7% | viability, T/C (second compound 0.00316 µM, first compound 0.1 µM) 17.2% | viability, T/C (second compound 0.01 µM, first compound 0.000316 µM) 63% | viability, T/C (second compound 0.01 µM, first compound 0.001 µM) 62.7% | viability, T/C (second compound 0.01 µM, first compound 0.00316 µM) 52.6% | viability, T/C (second compound 0.01 µM, first compound 0.01 µM) 33% | viability, T/C (second compound 0.01 µM, first compound 0.0316 µM) 27% | viability, T/C (second compound 0.01 µM, first compound 0.1 µM) 17.2% | viability, T/C (second compound 0.0316 µM, first compound 0.000316 µM) 61.4% | viability, T/C (second compound 0.0316 µM, first compound 0.001 µM) 51.9% | viability, T/C (second compound 0.0316 µM, first compound 0.00316 µM) 43% | viability, T/C (second compound 0.0316 µM, first compound 0.01 µM) 34.4% | viability, T/C [1] 23.9% | viability, T/C [2] 14% | viability, T/C (second compound 0.1 µM, first compound 0.000316 µM) 59.5% | viability, T/C (second compound 0.1 µM, first compound 0.001 µM) 53.2% | viability, T/C (second compound 0.1 µM, first compound 0.00316 µM) 40.6% | viability, T/C (second compound 0.1 µM, first compound 0.01 µM) 27% | viability, T/C [3] 20.8% | viability, T/C [4] 14.1% | viability, T/C (second compound 0.316 µM, first compound 0.000316 µM) 61.1% | viability, T/C (second compound 0.316 µM, first compound 0.001 µM) 49.6% | viability, T/C (second compound 0.316 µM, first compound 0.00316 µM) 45.8% | viability, T/C (second compound 0.316 µM, first compound 0.01 µM) 25.9% | viability, T/C [5] 22.1% | viability, T/C [6] 12.9% | viability, T/C (second compound 1 µM, first compound 0.000316 µM) 64.9% | viability, T/C (second compound 1 µM, first compound 0.001 µM) 50.1% | viability, T/C (second compound 1 µM, first compound 0.00316 µM) 47.7% | viability, T/C (second compound 1 µM, first compound 0.01 µM) 30.2% | viability, T/C [7] 20.9% | viability, T/C [8] 13.2%
1.3 nM: IC50 (second compound 0.316 µM)
1.35 nM: IC50 (second compound 0.0316 µM)
3.91 nM: IC50 (second compound 0.00316 µM)

CC(C)NCC(C(=O)N1CCN(c2ncnc3c2C(C)CC3O)CC1)c1ccc(Cl)cc1 (centres undefined) + C#Cc1c(F)ccc2cc(O)cc(-c3ncc4c(N5CC6CCC(C5)N6)nc(OCC56CCCN5CC(F)C6)nc4c3F)c12
inactive: viability, T/C [1] 105% | viability, T/C [2] 113% | viability, T/C (second compound 0.0316 µM, first compound 0.316 µM) 92.2% | viability, T/C (second compound 0.0316 µM, first compound 1 µM) 71.2% | viability, T/C (second compound 0.0316 µM, first compound 3.16 µM) 44.6% | viability, T/C (second compound 0.0316 µM, first compound 10 µM) 28.3% | viability, T/C [3] 112% | viability, T/C [4] 105% | viability, T/C (second compound 0.1 µM, first compound 0.316 µM) 99.2% | viability, T/C (second compound 0.1 µM, first compound 1 µM) 70% | viability, T/C (second compound 0.1 µM, first compound 3.16 µM) 49.8% | viability, T/C (second compound 0.1 µM, first compound 10 µM) 28.3% | viability, T/C [5] 105% | viability, T/C [6] 104% | viability, T/C (second compound 0.316 µM, first compound 0.316 µM) 96.3% | viability, T/C (second compound 0.316 µM, first compound 1 µM) 73.1% | viability, T/C (second compound 0.316 µM, first compound 3.16 µM) 47.5% | viability, T/C (second compound 0.316 µM, first compound 10 µM) 27% | viability, T/C [7] 108% | viability, T/C [8] 100% | viability, T/C (second compound 1 µM, first compound 0.316 µM) 86.5% | viability, T/C (second compound 1 µM, first compound 1 µM) 59.9% | viability, T/C (second compound 1 µM, first compound 3.16 µM) 38.5% | viability, T/C (second compound 1 µM, first compound 10 µM) 23.5% | viability, T/C (second compound 3.16 µM, first compound 0.0316 µM) 72.2% | viability, T/C (second compound 3.16 µM, first compound 0.1 µM) 75% | viability, T/C (second compound 3.16 µM, first compound 0.316 µM) 63.9% | viability, T/C (second compound 3.16 µM, first compound 1 µM) 41.6% | viability, T/C (second compound 3.16 µM, first compound 3.16 µM) 26.1% | viability, T/C (second compound 3.16 µM, first compound 10 µM) 16.1% | viability, T/C (second compound 10 µM, first compound 0.0316 µM) 54.3% | viability, T/C (second compound 10 µM, first compound 0.1 µM) 47% | viability, T/C (second compound 10 µM, first compound 0.316 µM) 35.2% | viability, T/C (second compound 10 µM, first compound 1 µM) 23% | viability, T/C (second compound 10 µM, first compound 3.16 µM) 13.7%
active: viability, T/C (second compound 10 µM, first compound 10 µM) 9.15%
2440 nM: IC50 (second compound 0.0316 µM)
676 nM: IC50 (second compound 3.16 µM)
62.1 nM: IC50 (second compound 10 µM)
1720 nM: IC50 (second compound 1 µM)
2810 nM: IC50 (second compound 0.1 µM)
2730 nM: IC50 (second compound 0.316 µM)
